# Tested on: LG0567-F671-PDC multi-cell spheroid viability
# Assay: Anticancer human tumor LG0567-F671-PDC patient-derived lung adenocarcinoma cell line growth inhibition [IpAb]
# Details: for IC50: curve of first compound; for viability, T/C: stronger effect = lower value
# How it was run: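 Spheroids of 60% malignant cells, 25% HUVEC and 15% MSC were exposed to targeted agents combined with ipatasertib or abemaciclib. Doses started at or near clinical Cmax (10 microM when unknown) and fell in half-log steps.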
# [1] = second compound 0.01 µM, first compound 0.0316 µM
# [2] = second compound 0.01 µM, first compound 0.1 µM
# [3] = second compound 0.0316 µM, first compound 0.0316 µM
# [4] = second compound 0.0316 µM, first compound 0.1 µM
# [5] = second compound 0.1 µM, first compound 0.0316 µM
# [6] = second compound 0.1 µM, first compound 0.1 µM
# [7] = second compound 0.316 µM, first compound 0.0316 µM
# [8] = second compound 0.316 µM, first compound 0.1 µM
# [9] = second compound 1 µM, first compound 0.0316 µM
# [10] = second compound 1 µM, first compound 0.1 µM
# 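Also: viability read after 7 days of drug exposure.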
# 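For viability, T/C in this document: 100% = DMSO vehicle control luminescence.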
compound,measurement,setting,value
C=CCn1c(=O)c2cnc(Nc3ccc(N4CCN(C)CC4)cc3)nc2n1-c1cccc(C(C)(C)O)n1 + CCN1CCN(Cc2ccc(Nc3ncc(F)c(-c4cc(F)c5nc(C)n(C(C)C)c5c4)n3)nc2)CC1,IC50,second compound 0.01 µM,800 nM
same,IC50,second compound 0.0316 µM,310 nM
same,IC50,second compound 0.1 µM,518 nM
same,IC50,second compound 0.316 µM,240 nM
same,IC50,second compound 1 µM,359 nM
same,"viability, T/C",[1],95%
same,"viability, T/C",[2],68.1%
same,"viability, T/C","second compound 0.01 µM, first compound 0.316 µM",66.8%
same,"viability, T/C","second compound 0.01 µM, first compound 1 µM",48.4%
same,"viability, T/C","second compound 0.01 µM, first compound 3.16 µM",31.9%
same,"viability, T/C","second compound 0.01 µM, first compound 10 µM",32%
same,"viability, T/C",[3],94.2%
same,"viability, T/C",[4],52.9%
same,"viability, T/C","second compound 0.0316 µM, first compound 0.316 µM",54.9%
same,"viability, T/C","second compound 0.0316 µM, first compound 1 µM",48.5%
same,"viability, T/C","second compound 0.0316 µM, first compound 3.16 µM",36.4%
same,"viability, T/C","second compound 0.0316 µM, first compound 10 µM",23.8%
same,"viability, T/C",[5],64.2%
same,"viability, T/C",[6],50.4%
same,"viability, T/C","second compound 0.1 µM, first compound 0.316 µM",51.2%
same,"viability, T/C","second compound 0.1 µM, first compound 1 µM",51.1%
same,"viability, T/C","second compound 0.1 µM, first compound 3.16 µM",35%
same,"viability, T/C","second compound 0.1 µM, first compound 10 µM",23.8%
same,"viability, T/C",[7],57.8%
same,"viability, T/C",[8],52.9%
same,"viability, T/C","second compound 0.316 µM, first compound 0.316 µM",46.9%
same,"viability, T/C","second compound 0.316 µM, first compound 1 µM",45.6%
same,"viability, T/C","second compound 0.316 µM, first compound 3.16 µM",35.8%
same,"viability, T/C","second compound 0.316 µM, first compound 10 µM",27.9%
same,"viability, T/C",[9],63.8%
same,"viability, T/C",[10],59.8%
same,"viability, T/C","second compound 1 µM, first compound 0.316 µM",49.2%
same,"viability, T/C","second compound 1 µM, first compound 1 µM",43.9%
same,"viability, T/C","second compound 1 µM, first compound 3.16 µM",33.9%
same,"viability, T/C","second compound 1 µM, first compound 10 µM",29.4%
CC(C)n1nc(-c2ccc3oc(N)nc3c2)c2c(N)ncnc21 + CCN1CCN(Cc2ccc(Nc3ncc(F)c(-c4cc(F)c5nc(C)n(C(C)C)c5c4)n3)nc2)CC1,IC50,second compound 0.01 µM,30.5 nM
same,IC50,second compound 0.0316 µM,11.6 nM
same,IC50,second compound 0.1 µM,13.5 nM
same,IC50,second compound 0.316 µM,6.93 nM
same,IC50,second compound 1 µM,6.59 nM
same,"viability, T/C","second compound 0.01 µM, first compound 0.000316 µM",111%
same,"viability, T/C","second compound 0.01 µM, first compound 0.001 µM",88.4%
same,"viability, T/C","second compound 0.01 µM, first compound 0.00316 µM",65.4%
same,"viability, T/C","second compound 0.01 µM, first compound 0.01 µM",70.2%
same,"viability, T/C",[1],50%
same,"viability, T/C",[2],38.6%
same,"viability, T/C","second compound 0.0316 µM, first compound 0.000316 µM",86.8%
same,"viability, T/C","second compound 0.0316 µM, first compound 0.001 µM",80.8%
same,"viability, T/C","second compound 0.0316 µM, first compound 0.00316 µM",73.8%
same,"viability, T/C","second compound 0.0316 µM, first compound 0.01 µM",52.9%
same,"viability, T/C",[3],34.9%
same,"viability, T/C",[4],35%
same,"viability, T/C","second compound 0.1 µM, first compound 0.000316 µM",65.5%
same,"viability, T/C","second compound 0.1 µM, first compound 0.001 µM",70.2%
same,"viability, T/C","second compound 0.1 µM, first compound 0.00316 µM",47.8%
same,"viability, T/C","second compound 0.1 µM, first compound 0.01 µM",55.6%
same,"viability, T/C",[5],46.7%
same,"viability, T/C",[6],29.1%
same,"viability, T/C","second compound 0.316 µM, first compound 0.000316 µM",66.4%
same,"viability, T/C","second compound 0.316 µM, first compound 0.001 µM",53.2%
same,"viability, T/C","second compound 0.316 µM, first compound 0.00316 µM",69.8%
same,"viability, T/C","second compound 0.316 µM, first compound 0.01 µM",38.5%
same,"viability, T/C",[7],39.6%
same,"viability, T/C",[8],36.8%
same,"viability, T/C","second compound 1 µM, first compound 0.000316 µM",57.1%
same,"viability, T/C","second compound 1 µM, first compound 0.001 µM",61.7%
same,"viability, T/C","second compound 1 µM, first compound 0.00316 µM",56.3%
same,"viability, T/C","second compound 1 µM, first compound 0.01 µM",40.9%
same,"viability, T/C",[9],43.6%
same,"viability, T/C",[10],27.9%

# — PubChem BioAssay AID2060332 (Molecular Pharmacology Branch, DTP, NCI, 2025)
